One molecule from PMC7044277 (Nature Communications, 2020) can be followed below.

Values joined by “and” are separate entries in the source; they are usually repeats but may differ in a detail not shown here. Identical values can stand only once.

Common to all, as to assay type: cell-based
Test [1] deals with T1, 320 non-olfactory GPCRs (Homo sapiens, UniProt P04201).
T1 construct: expressed in transfected cells; host or cells: HTLA cells
The conditions noted are these: receptor MAS1; replicate values, Fig_4g.

In test [2] the target is T2, 320 non-olfactory GPCRs (Homo sapiens, UniProt P30518).
T2 construct: expressed in transfected cells; host or cells: HTLA cells

In test [3] the target is T3, 320 non-olfactory GPCRs (Homo sapiens, UniProt P30559).
T3 construct: expressed in transfected cells; host or cells: HTLA cells
As to conditions: receptor OXTR; replicate values, Fig_4g.

Test [4] addresses T4, 320 non-olfactory GPCRs (Homo sapiens, UniProt P50391).
T4 construct: expressed in transfected cells; host or cells: HTLA cells
The conditions noted are these: receptor NPY4R; replicate values, Fig_4g.
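Wherever Fold of Basal is given: compound tested at 1 µM final concentration.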
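Wherever GPCRome agonism screen response is given: fold over basal response of each receptor without drug.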

T4 sequence (P50391 whole entry): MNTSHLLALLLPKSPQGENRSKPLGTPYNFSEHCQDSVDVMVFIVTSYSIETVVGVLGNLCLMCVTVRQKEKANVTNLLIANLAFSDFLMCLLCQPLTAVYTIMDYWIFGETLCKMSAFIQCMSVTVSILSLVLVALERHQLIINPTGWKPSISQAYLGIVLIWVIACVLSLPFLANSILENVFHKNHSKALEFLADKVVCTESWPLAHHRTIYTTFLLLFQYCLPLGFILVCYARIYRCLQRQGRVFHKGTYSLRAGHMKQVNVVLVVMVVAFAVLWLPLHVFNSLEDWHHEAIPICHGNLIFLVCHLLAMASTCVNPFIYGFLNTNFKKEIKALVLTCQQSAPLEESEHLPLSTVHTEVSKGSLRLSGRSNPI
T1 sequence (P04201 whole entry): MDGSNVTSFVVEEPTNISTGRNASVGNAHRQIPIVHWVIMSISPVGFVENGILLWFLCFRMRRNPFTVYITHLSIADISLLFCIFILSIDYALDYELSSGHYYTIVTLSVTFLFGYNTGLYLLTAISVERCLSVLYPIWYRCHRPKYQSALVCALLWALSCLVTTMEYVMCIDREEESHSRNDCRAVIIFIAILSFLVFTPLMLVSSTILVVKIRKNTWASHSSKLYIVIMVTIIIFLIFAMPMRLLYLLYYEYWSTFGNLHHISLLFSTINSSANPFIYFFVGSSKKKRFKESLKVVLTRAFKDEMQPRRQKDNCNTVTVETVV
T3 sequence (P30559 whole entry): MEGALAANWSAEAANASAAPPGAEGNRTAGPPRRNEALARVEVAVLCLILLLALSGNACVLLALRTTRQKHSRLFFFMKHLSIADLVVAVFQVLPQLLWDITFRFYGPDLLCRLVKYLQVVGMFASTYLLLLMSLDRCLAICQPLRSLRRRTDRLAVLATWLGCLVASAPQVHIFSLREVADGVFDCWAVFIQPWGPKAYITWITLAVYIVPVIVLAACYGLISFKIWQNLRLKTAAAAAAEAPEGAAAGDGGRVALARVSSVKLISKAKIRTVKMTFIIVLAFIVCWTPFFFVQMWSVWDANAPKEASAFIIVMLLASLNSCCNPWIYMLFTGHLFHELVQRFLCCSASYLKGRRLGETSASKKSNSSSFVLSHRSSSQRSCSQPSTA
T2 sequence (P30518 whole entry): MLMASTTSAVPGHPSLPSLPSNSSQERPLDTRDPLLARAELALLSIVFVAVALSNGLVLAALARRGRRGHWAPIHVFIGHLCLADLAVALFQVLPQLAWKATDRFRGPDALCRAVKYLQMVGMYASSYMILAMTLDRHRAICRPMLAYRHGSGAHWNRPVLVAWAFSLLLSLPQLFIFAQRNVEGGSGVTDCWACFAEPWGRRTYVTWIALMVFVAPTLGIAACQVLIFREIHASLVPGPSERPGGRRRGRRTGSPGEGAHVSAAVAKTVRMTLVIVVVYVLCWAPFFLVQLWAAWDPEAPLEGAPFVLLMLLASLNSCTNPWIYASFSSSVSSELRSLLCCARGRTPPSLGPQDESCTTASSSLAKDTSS

Take `CCOc1cccc2cc(C(C)NCC3(O)CCCCC3)oc12` (stereo not shown) [O4LE6]: the “GPCRome agonism screen response” value was 0.7017 and 0.6641 and 0.72 in test [1]; 1.578 and 1.894 and 1.457 and 1.467 in test [3]; 0.9177 and 0.7118 and 1.258 and 0.6362 in test [4]. In addition, the “Fold of Basal” value in test [2] was 1.01 and 0.8337 and 0.9883 and 1.294.
